Test results reported in PubChem BioAssay (NCI).
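1) Cells in 96-well plates. 2) Compound, 48 h, 5 concentrations. 3) Linear interpolation between surrounding doses. 4) Unreached endpoint = highest concentration. TGI denotes the concentration required for complete inhibition of growth.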

Columns and labels:
Assay in all cases: growth of human tumour cells (NCI), 48 h
A549 NSCLC = tested on: A549 NSCLC
ACHN renal = tested on: ACHN renal
COLO 205 colon = tested on: COLO 205 colon
DU-145 prostate = tested on: DU-145 prostate
EKVX NSCLC = tested on: EKVX NSCLC
HCT-116 colon = tested on: HCT-116 colon
HCT-15 colon = tested on: HCT-15 colon
HOP-62 NSCLC = tested on: HOP-62 NSCLC
HOP-92 NSCLC = tested on: HOP-92 NSCLC
HS 578T breast = tested on: HS 578T breast
HT29 colon = tested on: HT29 colon
IGROV1 ovarian = tested on: IGROV1 ovarian
LOX IMVI melanoma = tested on: LOX IMVI melanoma
M14 melanoma = tested on: M14 melanoma
MALME-3M melanoma = tested on: MALME-3M melanoma
MDA-MB-231 breast = tested on: MDA-MB-231 breast
MDA-N = tested on: MDA-N
MOLT-4 leukemia = tested on: MOLT-4 leukemia
NCI-H460 lung = tested on: NCI-H460 lung
NCI-H522 lung = tested on: NCI-H522 lung
NCI/ADR-RES ovarian = tested on: NCI/ADR-RES ovarian
OVCAR-3 ovarian = tested on: OVCAR-3 ovarian
OVCAR-4 ovarian = tested on: OVCAR-4 ovarian
OVCAR-8 ovarian = tested on: OVCAR-8 ovarian
PC-3 prostate = tested on: PC-3 prostate
SF-268 CNS = tested on: SF-268 CNS
SF-295 CNS = tested on: SF-295 CNS
SK-MEL-2 melanoma = tested on: SK-MEL-2 melanoma
SK-MEL-5 melanoma = tested on: SK-MEL-5 melanoma
SK-OV-3 ovarian = tested on: SK-OV-3 ovarian
SN12C renal = tested on: SN12C renal
SNB-75 CNS = tested on: SNB-75 CNS
SR leukemia = tested on: SR leukemia
SW-620 colon = tested on: SW-620 colon
T-47D breast = tested on: T-47D breast
UACC-257 melanoma = tested on: UACC-257 melanoma
UACC-62 melanoma = tested on: UACC-62 melanoma
786-0 renal = tested on: 786-0 renal
A498 renal = tested on: A498 renal
CAKI-1 renal = tested on: CAKI-1 renal
HCC-2998 colon = tested on: HCC-2998 colon
HL-60(TB) leukemia = tested on: HL-60(TB) leukemia
K-562 leukemia = tested on: K-562 leukemia
KM12 colon = tested on: KM12 colon
MCF7 breast = tested on: MCF7 breast
MDA-MB-435 = tested on: MDA-MB-435
NCI-H226 lung = tested on: NCI-H226 lung
NCI-H23 lung = tested on: NCI-H23 lung
OVCAR-5 ovarian = tested on: OVCAR-5 ovarian
SF-539 CNS = tested on: SF-539 CNS
SK-MEL-28 melanoma = tested on: SK-MEL-28 melanoma
SNB-19 CNS = tested on: SNB-19 CNS
TK-10 renal = tested on: TK-10 renal
U251 CNS = tested on: U251 CNS
CCRF-CEM leukemia = tested on: CCRF-CEM leukemia
RPMI-8226 leukemia = tested on: RPMI-8226 leukemia
RXF 393 renal = tested on: RXF 393 renal
UO-31 renal = tested on: UO-31 renal
BT-549 breast = tested on: BT-549 breast

Measured: TGI

CC(C)c1cc(C(C)C)c(B(c2ccccc2)c2ccccc2)c(C(C)C)c1B(c1ccccc1)c1ccccc1
not listed: 786-0 renal | A498 renal | CAKI-1 renal | HCC-2998 colon | HL-60(TB) leukemia | K-562 leukemia | KM12 colon | MCF7 breast | MDA-MB-435 | NCI-H226 lung | NCI-H23 lung | OVCAR-5 ovarian | SF-539 CNS | SK-MEL-28 melanoma | SNB-19 CNS | TK-10 renal | U251 CNS | CCRF-CEM leukemia | RPMI-8226 leukemia | RXF 393 renal | UO-31 renal | BT-549 breast
> 100 µM: all other assays above

CC(C)=C=CP(=O)(O)c1ccccc1
not listed: MDA-MB-231 breast | MOLT-4 leukemia | CCRF-CEM leukemia | RPMI-8226 leukemia | RXF 393 renal | UO-31 renal | BT-549 breast
> 100 µM: all other assays above

N#Cc1c(N2CCCC2)nsc1Nc1ccccc1
not listed: HOP-62 NSCLC | NCI-H522 lung | OVCAR-3 ovarian | SK-OV-3 ovarian | UACC-62 melanoma | CAKI-1 renal | MCF7 breast | MDA-MB-435 | U251 CNS | BT-549 breast
> 100 µM: all other assays above

Cn1c2ccccc2c2c3c(c4c5ccccc5n(C)c4c21)C(=O)N(c1ccccc1)C3=O
not listed: HS 578T breast | SF-268 CNS | HL-60(TB) leukemia | RXF 393 renal
> 100 µM: all other assays above
